Consider 21 compounds from publication PMC3894848 (Journal of medicinal chemistry, 2013).

In one data set the target is BRD4 BrD1 (Homo sapiens, UniProt O60885). Kind of data set: Fluorescence anisotropy competition binding assay. The conditions noted are these: for binding activity toward BRD4 BrD1 (in words): fluorescence anisotropy/polarization assay; for Lipophilic Ligand Efficiency: against BRD4-BrD1, LLE = pKi – ClogP.
A further data set deals with BRD4 BrD2 (Homo sapiens, UniProt O60885). Kind of data set: Fluorescence anisotropy competition binding assay, BRD4 BrD2.

Take `CC(C)c1cc(/N=N/c2ccc(S(=O)(=O)Nc3ccccn3)cc2)cc(C(C)C)c1O` [Compound 41, (E)-4-((4-hydroxy-3,5-diisopropylphenyl)diazenyl)-N-(pyridin-2-yl)benzenesulfonamide]: the “binding activity toward BRD4 BrD1 (in words)” value at BRD4 BrD1 is recorded as “almost completely lost their activities”.
Take `Cc1cc(/N=N/c2cccc(S(=O)(=O)Nc3ccccn3)c2)c(N)cc1O` [Compound 51, (E)-3-((2-amino-4-hydroxy-5-methylphenyl)diazenyl)-N-(pyridin-2-yl)benzenesulfonamide]: the “reduction in binding affinity to the BRD4 BrD2 vs MS436” value at BRD4 BrD2 was determined as 3 fold. Moreover, the “reduction in binding affinity to the BRD4 BrD1 vs MS436” value (from here on “reduction … to the BRD4 BrD1 vs MS436”) on BRD4 BrD1 is 10 fold.
Turning to `Cc1cc(/N=N/c2ccc(S(=O)(=O)Nc3ccccn3)cc2)c(N)c(C)c1O` [Compound 28, (E)-4-((2-amino-4-hydroxy-3,5-dimethylphenyl)diazenyl)N-(pyridin-2-yl)benzenesulfon-amide], on BRD4 BrD1, the “Lipophilic Ligand Efficiency” value amounted to 2.77 and the “reduction … to the BRD4 BrD1 vs MS436” value is listed as “about 2 fold”.
In the case of `Cc1cc(C)c(S(=O)(=O)O)cc1/N=N/c1cc(C)c(O)c(C)c1` [Compound 2, (E)-5-(3,5-dimethyl-4-hydroxyphenylazo)-2,4-dimethylbenzenesulfonic acid], the “improvement in binding affinity to the BRD4 BrDs over MS120 (1)” value on BRD4 BrD1 (vs MS120 (1), both BRD4 BrDs) is listed as 2–3 fold.
In the case of `Cc1cc(/N=N/c2ccc(S(=O)(=O)Nc3ccc(C(=O)O)cn3)cc2)cc(C)c1O` [Compound 9, (E)-6-(4-((4-hydroxy-3,5-dimethylphenyl)diazenyl)phenylsulfonamido)nicotinic acid], the “better affinity/potency toward BRD4 BrD1 than MS435” value on BRD4 BrD1 (vs MS435) was “about 3 fold”.
As to `Cc1cc(/N=N/c2ccc(S(=O)(=O)N(C)c3ccccn3)cc2)cc(C)c1O` [Compound 6, (E)-4-((4-hydroxy-3,5-dimethylphenyl)diazenyl)-N-methyl-N-(pyridin-2-yl)benzenesul-fonamide], the “loss in activity/affinity toward BRD4 BrD1 vs MS435” value at BRD4 BrD1 (vs MS435) is 9 fold.
As to `COc1c(C)cc(/N=N/c2ccc(S(=O)(=O)Nc3ccccn3)cc2)cc1C` [Compound 37, (E)-4-((4-methoxy-3,5-dimethylphenyl)diazenyl)-N-(pyridin-2-yl)benzenesulfonamide], the “binding activity toward BRD4 BrD1 (in words)” value on BRD4 BrD1 was “completely lost binding activity”.
Same read-out and setting: the value for `CC(=O)Nc1c(C)cc(/N=N/c2ccc(S(=O)(=O)Nc3ccccn3)cc2)cc1C` [Compound 38, (E)-N-(2,6-dimethyl-4-((4-(N-(pyridin-2-yl)sulfamoyl)phenyl)diazenyl)phenyl)acetamide] was “completely lost binding activity”; that for `Cc1cc(/N=N/c2ccc(S(=O)(=O)NCc3ccc(C(F)(F)F)cc3)cc2)c(N)cc1O` [Compound 36, (E)-4-((2-amino-4-hydroxy-5-methylphenyl)diazenyl)-N-(4-(trifluoromethyl)benzyl)benzene sulfonamide] was “deteriorated drastically”; that for `Cc1cc(/N=N/c2ccc(S(=O)(=O)NCc3ccc(C(F)(F)F)cc3)cc2)cc(C)c1O` [Compound 5, (E)-4-((4-hydroxy-3,5-dimethylphenyl)diazenyl)-N-(4-(trifluoromethyl)benzyl)benzenesul-fonamide] was “deteriorated drastically”.
On to `Cc1cc(/N=N/c2ccc(S(=O)(=O)Nc3ccccn3)cc2)cc(C)c1O` [Compound 4, (E)-4-((4-hydroxy-3,5-dimethylphenyl)diazenyl)-N-(pyridin-2-yl)benzenesulfonamide], for which, at BRD4 BrD1, the “Lipophilic Ligand Efficiency” value is on record as 0.78. Further, the “improvement of affinity for the BRD4 BrD1 vs compound 3” value on BRD4 BrD1 (vs 3) is “over 6 fold”.
As to `CC(C)(C)c1cc(/N=N/c2ccc(S(=O)(=O)Nc3ccccn3)cc2)cc(C(C)(C)C)c1O` [Compound 42, (E)-4-((3,5-di-tert-butyl-4-hydroxyphenyl)diazenyl)-N-(pyridin-2-yl)benzenesulfonamide], at BRD4 BrD1, the “binding activity toward BRD4 BrD1 (in words)” value is reported as “almost completely lost their activities”.
The same measure, in the same setting: the value for `Cc1cc(/N=N/c2cc(S(=O)(=O)O)c(C)cc2C)c(N)cc1O` [Compound 1, (E)-5-((2-amino-4-hydroxy-5-methylphenyl)diazenyl)-2,4-dimethylbenzenesulfonic acid] was “modest activity”; that for `Cc1cc(/N=N/c2ccc(S(=O)(=O)NCc3ccc(C(F)(F)F)cc3)cc2)ccc1O` [Compound 35, (E)-4-((4-hydroxy-3-methylphenyl)diazenyl)-N-(4-(trifluoromethyl)benzyl)benzenesulfon-amide] was “deteriorated drastically”.
`CC(C)c1cc(/N=N/c2ccc(S(=O)(=O)Nc3ccccn3)cc2)ccc1O` [Compound 39, (E)-4-((4-hydroxy-3-isopropylphenyl)diazenyl)-N-(pyridin-2-yl)benzenesulfonamide]: the “loss in activity/affinity toward BRD4 BrD1 vs MS435” value on BRD4 BrD1 (vs MS435) is “about 10 fold”.
In the case of `CC(C)(C)c1cc(/N=N/c2ccc(S(=O)(=O)Nc3ccccn3)cc2)ccc1O` [Compound 40, (E)-4-((3-(tert-butyl)-4-hydroxyphenyl)diazenyl)-N-(pyridin-2-yl)benzenesulfonamide], the “loss in activity/affinity toward BRD4 BrD1 vs MS435” value at BRD4 BrD1 (vs MS435) is “about 10 fold”.
With `COc1cc(/N=N/c2ccc(S(=O)(=O)Nc3ccccn3)cc2)c(N)cc1O` [Compound 30, (E)-4-((2-amino-4-hydroxy-5-methoxyphenyl)diazenyl)-N-(pyridin-2-yl)benzenesulfon-amide], the “reduction in binding affinity to the BRD4 BrD2 vs MS436” value on BRD4 BrD2 is listed as 15 fold. Further, on BRD4 BrD1, the “reduction … to the BRD4 BrD1 vs MS436” value was found to be 15 fold.
On to `COc1ccc(NS(=O)(=O)c2ccc(/N=N/c3cc(C)c(O)c(C)c3)cc2)nc1` [Compound 12, (E)-4-((4-hydroxy-3,5-dimethylphenyl)diazenyl)-N-(5-methoxypyridin-2-yl)benzenesulfon-amide], for which the “increase in binding affinity for the BRD4 BrD2 by nitrogen in the C ring” value at BRD4 BrD2 (12 vs. 13) amounted to 3 fold. Besides, at BRD4 BrD1 (12 vs. 13), the “improvement in binding affinity to the BRD4 BrD1 by nitrogen in the C ring” value was determined as 13 fold. Also, the “selectivity for the BrD1 over the BrD2 of BRD4” value at BRD4 BrD1 (ratio of binding affinities) amounted to 4 fold.
Take `Cc1cc(/N=N/c2cccc(S(=O)(=O)Nc3ccccn3)c2)cc(C)c1O` [Compound 3, (E)-3-((4-hydroxy-3,5-dimethylphenyl)diazenyl)-N-(pyridin-2-yl)benzenesulfonamide]: the “binding activity toward BRD4 BrD1 (in words)” value on BRD4 BrD1 is “retained the affinity of 2”.
Regarding `Cc1cc(/N=N/c2ccc(S(=O)(=O)Nc3ccccn3)cc2)nc(C)c1O` [Compound 31, (E)-4-((5-hydroxy-4,6-dimethylpyridin-2-yl)diazenyl)-N-(pyridin-2-yl)benzenesulfonamide], the “loss in activity/affinity toward BRD4 BrD1 vs MS435” value at BRD4 BrD1 (vs MS435) came out at 3 fold.
With `Cc1nc(/N=N/c2ccc(S(=O)(=O)Nc3ccccn3)cc2)c(C)c(C)c1O` [Compound 32, (E)-4-((5-hydroxy-3,4,6-trimethylpyridin-2-yl)diazenyl)-N-(pyridin-2-yl)benzenesulfon-amide], the “loss in activity/affinity toward BRD4 BrD1 vs MS435” value at BRD4 BrD1 (vs MS435) is listed as 3 fold.
